Results as given in patent publication US6855730B2, “3-methylidenyl-2-indolinone modulators of protein kinase” (Sugen, Inc., priority 1998, dated 2005).

Molecular target: EGFR (Homo sapiens, UniProt P00533)
Experiment: Biochemical EGFR assay (ELISA, A431 cell lysate)
Parameters: A431 cell lysate (Screening Lab, SUGEN, Inc.); host or cells: A431
Conditions: read-out: bio EGFr IC50
Method in brief: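 EGFR captured from A431 cell lysate onto anti-EGFR-coated plates, then incubated with test compound for 30 min at room temperature. Tyrosine phosphorylation with ATP/MnCl2 was stopped with EDTA after 5 min and detected by anti-phosphotyrosine ELISA with peroxidase/ABTS read-out.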

Sequence of EGFR (P00533 25-1210): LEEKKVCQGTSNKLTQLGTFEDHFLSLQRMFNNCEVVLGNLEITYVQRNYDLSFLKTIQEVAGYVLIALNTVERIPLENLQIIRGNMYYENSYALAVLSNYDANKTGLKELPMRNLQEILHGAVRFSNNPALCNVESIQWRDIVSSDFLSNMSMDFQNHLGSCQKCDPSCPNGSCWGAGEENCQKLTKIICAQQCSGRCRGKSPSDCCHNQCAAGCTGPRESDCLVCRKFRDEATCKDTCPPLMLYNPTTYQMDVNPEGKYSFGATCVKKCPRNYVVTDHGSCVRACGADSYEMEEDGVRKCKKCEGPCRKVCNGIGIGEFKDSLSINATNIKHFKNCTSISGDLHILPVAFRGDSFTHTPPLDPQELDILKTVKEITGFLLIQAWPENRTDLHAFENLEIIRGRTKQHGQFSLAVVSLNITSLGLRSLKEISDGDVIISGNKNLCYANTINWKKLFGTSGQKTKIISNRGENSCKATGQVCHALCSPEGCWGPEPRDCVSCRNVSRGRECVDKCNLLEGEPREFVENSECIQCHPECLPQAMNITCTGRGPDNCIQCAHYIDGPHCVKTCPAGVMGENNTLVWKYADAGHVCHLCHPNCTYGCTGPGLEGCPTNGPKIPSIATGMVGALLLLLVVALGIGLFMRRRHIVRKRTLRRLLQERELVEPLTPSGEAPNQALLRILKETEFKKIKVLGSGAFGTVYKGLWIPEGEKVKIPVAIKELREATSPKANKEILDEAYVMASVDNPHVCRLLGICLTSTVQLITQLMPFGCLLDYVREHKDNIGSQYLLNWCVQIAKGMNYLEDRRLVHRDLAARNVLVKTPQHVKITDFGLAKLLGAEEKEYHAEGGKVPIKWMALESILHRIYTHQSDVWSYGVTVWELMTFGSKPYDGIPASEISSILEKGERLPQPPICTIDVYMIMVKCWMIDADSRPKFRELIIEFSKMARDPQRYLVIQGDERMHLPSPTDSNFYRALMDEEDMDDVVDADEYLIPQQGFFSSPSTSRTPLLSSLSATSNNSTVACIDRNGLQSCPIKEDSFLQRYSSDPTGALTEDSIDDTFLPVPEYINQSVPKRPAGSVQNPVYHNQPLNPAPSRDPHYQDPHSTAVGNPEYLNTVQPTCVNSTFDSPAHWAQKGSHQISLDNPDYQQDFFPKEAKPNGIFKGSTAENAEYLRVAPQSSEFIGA

Structure (SMILES) | IC50 [µM]
COc1c(C(C)C)cc(/C=C2/C(=O)Nc3cc(O)ccc32)cc1C(C)C [Example 4, 3-(3,5-Diisopropyl-4-methoxybenzylidene)-6-hydroxy-1,3-dihydroindol-2-one] | > 100
COc1c(C(C)C)cc(/C=C2/C(=O)Nc3ccc(C(C)=O)cc32)cc1C(C)C [Example 5, 5-Acetyl-3-(3,5-diisopropyl-4-methoxybenzylidene)-1,3dihydroindol-2-one] | > 100
COC(=O)c1ccc2c(c1)/C(=C\c1cc(C(C)C)c(OC)c(C(C)C)c1)C(=O)N2 [Example 6, 3-(3,5-Diisopropyl-4-methoxybenzylidene)-2-oxo-2,3-dihydro-1H-indole-5-carboxylic acid methyl ester] | > 100
COc1ccc(/C=C2/C(=O)Nc3ccccc32)cc1C(C)C [Example 7, 3-(3-Isopropyl-4-methoxybenzylidene)-1,3-dihydroindol-2-one] | > 100
COc1cc(C)c(C=C2C(=O)Nc3ccccc32)cc1C(C)C [Example 8, 3-(5-Isopropyl-4-methoxy-2-methylbenzylidene)-1,3-dihydroindol-2-one] | > 100
COc1cc(C)c(C=C2C(=O)Nc3ccc(Cl)cc32)cc1C(C)C [Example 9, 5-Chloro-3-(5-isopropyl-4-methoxy-2-methylbenzylidene)-1,3-dihydroindol-2-one] | > 100
COc1ccc(/C=C2/C(=O)Nc3ccccc32)cc1C1CCCC1 [Example 10, 3-(3-Cyclopentyl-4-methoxybenzylidene)-1,3-dihydroindol-2-one] | > 100
COc1ccc(/C=C2/C(=O)Nc3ccc(F)cc32)cc1C1CCCC1 [Example 11, 3-(3-Cyclopentyl-4-methoxybenzylidene)-5-fluoro-1,3-dihydroindol-2-one] | > 100
COc1ccc(/C=C2/C(=O)Nc3ccccc32)cc1C1CCCCC1 [Example 12, 3-(3-Cyclohexyl-4-methoxybenzylidene)-1,3-dihydroindol-2-one] | > 100
COc1ccc(/C=C2/C(=O)Nc3ccc(Br)cc32)cc1-c1ccccc1 [Example 13, 5-Bromo-3-(6-methoxybiphenyl-3-ylmethylene)-1,3-dihydroindol-2-one] | > 100
O=C1Nc2ccc(Cl)cc2/C1=C\c1ccc2c(c1)CCO2 [Example 14, 5-Chloro-3-(2,3-dihydro-benzofuran-5-ylmethylene)-1,3-dihydroindol-2-one] | > 100
CC1(C)CCc2cc(/C=C3/C(=O)Nc4ccc(Cl)cc43)ccc2O1 [Example 15, 5-Chloro-3-(2,2-dimethyl-chroman-6-ylmethylene)-1,3-dihydroindol-2-one] | > 100
CC(=O)Nc1ccc2c(c1)NC(=O)/C2=C/c1ccc(OCCN2CCOCC2)c(C2CCCCC2)c1 [Example 16, N-{3-[3-Cyclohexyl-4-(2-morpholin-4-ylethoxy)-benzylidene]-2-oxo-2,3-dihydro-1H-indol-6-yl}-acetamide] | > 100
COc1ccc2c(c1)/C(=C\c1cc(C(C)C)c(OC)c(C(C)C)c1)C(=O)N2 [Example 17, 3-(3,5-Diisopropyl-4-methoxybenzylidene)-5-methoxy-1,3-dihydroindol-2-one] | > 100
COc1ccc(/C=C2/C(=O)Nc3cc(NC(C)=O)ccc32)cc1-c1ccsc1 [Example 18, N-[3-(4-Methoxy-3-thiophene-3-ylbenzylidene)-2-oxo-2,3-dihydro-1H-indol-6-yl]-acetamide] | > 100
COc1c(C(C)C)cc(/C=C2/C(=O)Nc3ccc(C)cc32)cc1C(C)C [Example 19, 3-(3,5-Diisopropyl-4-methoxybenzylidene)-5-methyl-1,3-dihydroindol-2-one] | > 100
COc1c(C(C)C)cc(/C=C2/C(=O)Nc3ccc(N)cc32)cc1C(C)C [Example 20, 5-Amino-3-(3,5-diisopropyl-4-methoxy-benzylidene)-1,3-dihydroindol-2-one] | > 100
COc1c(C)cc(/C=C2/C(=O)Nc3ccc(Cl)cc32)cc1C [Example 21, 5-Chloro-3-(4-methoxy-3,5-dimethylbenzylidene)-1,3-dihydroindol-2-one] | > 100
COc1c(C(C)C)cc(/C=C2/C(=O)Nc3cc(F)ccc32)cc1C(C)C [Example 22, 3-(3,5-Diisopropyl-4-methoxybenzylidene)-6-fluoro-1,3-dihydroindol-2-one] | > 100
CC1(C)CCc2cc(/C=C3/C(=O)Nc4ccc(F)cc43)ccc2O1 [Example 23, 3-(2,2-Dimethylchroman-6-ylmethylene)-5-fluoro-1,3-dihydroindol-2-one] | > 100
CC(C)c1cc(/C=C2/C(=O)Nc3ccc(Cl)cc32)cc(C(C)C)c1OCCN1CCOCC1 [Example 24, 5-chloro-3-[3,5-diisopropyl-4-(2-morpholin-4-ylethoxy)-benzylidene]-1,3-dihydroindol-2-one] | > 100
COc1ccc(/C=C2/C(=O)Nc3ccc(CCN4CCOCC4)cc32)cc1-c1ccsc1 [Example 26, 3-(4-Methoxy-3-thiophen-3-ylbenzylidene)-5-(2-morpholin-4-yl-ethyl)-1,3-dihydroindol-2-one] | > 100
COc1cc(C)c(C=C2C(=O)Nc3cc(NC(C)=O)ccc32)cc1C(C)C [Example 27, N-[3-(5-Isopropyl-4-methoxy-2-methyl-benzylidene)-2-oxo-2,3-dihydro-1H-indol-6-yl]-acetamide] | > 100
CCc1ccc2c(c1)/C(=C\c1cc(C(C)C)c(OC)c(C(C)C)c1)C(=O)N2 [Example 28, 3-(3,5-Diisopropyl-4-methoxbenzylidene)-5-ethyl-1,3-dihydroindol-2-one] | > 100
COc1ccc(C=C2C(=O)Nc3ccccc32)cc1-c1cccc(NC(C)=O)c1 [Example 29, N-[2′-Methoxy-5′-(2-oxo-1,2-dihydroindol-3-ylidenemethyl)-biphenyl-3-yl]-acetamide] | > 100
COc1cc(C)c(/C=C2/C(=O)Nc3ccc(F)cc32)cc1C(C)C [Example 30, 5-Fluoro-3-(5-isopropyl-4-methoxy-2-methyl-benzylidene)-1,3-dihydroindol-2-one] | > 100
COc1ccc(/C=C2/C(=O)Nc3cc(NC(C)=O)ccc32)cc1-c1cccs1 [Example 31, N-[3-(4-Methoxy-3-thiophen-2-ylbenzylidene)-2-oxo-2,3-dihydro-1H-indol-6-yl]-acetamide] | > 100

Results, then the compound that gave them:

IC50 [µM] | Structure (SMILES)
> 100 | COc1ccc(C=C2C(=O)Nc3cc(NC(C)=O)ccc32)cc1-c1cccc(NC(C)=O)c1 (mixture of isomers) [Example 63, N-[3-(3′-Acetylamino-6-methoxybiphenyl-3-ylmethylene)-2-oxo-2,3-dihydro-1H-indol-6-yl]-acetamide]
> 100 | CC1(C)CCc2cc(C=C3C(=O)Nc4ccc(Br)cc43)ccc2O1 (racemic) [Example 34, 5-Bromo-3-(2,2-dimethylchroman-6-ylmethylene)-1,3-dihydroindol-2-one]
> 100 | CNS(=O)(=O)c1ccc2c(c1)C(=Cc1[nH]c3ccccc3c1C)C(=O)N2 (racemic) [Example 154, 3-(3-Methyl-1H-indol-2-ylmethylene)-2-oxo-2,3-dihydro-1H-indole-5-sulfonic acid methylamide]
> 100 | COc1c(C(C)C)cc(/C=C2/C(=O)Nc3cc(N)ccc32)cc1C(C)C [Example 32, 6-Amino-3-(3,5-diisoprotyl-4-methoxy-benzylidene)-1,3-dihydroindol-2-one]
> 100 | CC(=O)Nc1ccc2c(c1)NC(=O)/C2=C\c1ccc2c(c1)CCC(C)(C)O2 [Example 33, N-[3-(2,2-Dimethylchroman-6-ylmethylene)-2-oxo-2,3-dihydro-1H-indol-6-yl]-acetamide]
> 100 | COc1ccc(/C=C2/C(=O)Nc3ccccc32)cc1-c1ccsc1 [Example 35, 3-(4-Methoxy-3-thiophen-3-ylbenzylidene)-1,3-dihydroindol-2-one]
> 100 | COc1cc(C)c(/C=C2/C(=O)Nc3ccc(Br)cc32)cc1C(C)C [Example 36, 5-Bromo-3-(5-isopropyl-4-methoxy-2-methyl-benzylidene)-1,3-dihydroindol-2-one]
> 100 | COc1ccc(/C=C2/C(=O)Nc3ccc(F)cc32)cc1-c1ccccc1 [Example 37, 5-Fluoro-3-(6-methoxybiphenyl-3-ylmethylene)-1,3-dihydroindol-2-one]
> 100 | COc1ccc(/C=C2\C(=O)Nc3cccc(C)c32)cc1C(C)C [Example 38, 3-(3-Isopropyl-4-methoxybenzylidene)-4-methyl-1,3-dihydroindol-2-one]
> 100 | COc1cc(/C=C2/C(=O)Nc3ccccc32)c(-c2cccs2)cc1OC [Example 39, 3-(4,5-Dimethoxy-2-thiophen-2-ylbenzylidene)-1,3-dihydroindol-2-one]
> 100 | CC(=O)Nc1ccc2c(c1)NC(=O)/C2=C/c1ccc(OCCN2CCOCC2)c(-c2cccs2)c1 [Example 40, N-{3-[4-(2-Morpholin-4-ylethoxy)-3-thiophen-2-ylbenzylidene]-2-oxo-2,3-dihydro-1H-indol-6-yl}-acetamide]
> 100 | Cc1cccc2c1/C(=C/c1ccc3c(c1)CCC(C)(C)O3)C(=O)N2 [Example 41, 3-(2,2-Dimethylchroman-6-ylmethylene)-4-methyl-1,3-dihydroindol-2-one]
> 100 | O=C1Nc2ccc(F)cc2/C1=C\c1ccc2c(c1)CCO2 [Example 42, 3-(2,3-Dihydrobenzofuran-5-ylmethylene)-5-fluoro-1,3-dihydroindol-2-one]
> 100 | COc1ccc(/C=C2/C(=O)Nc3ccc(F)cc32)cc1C1CCCCC1 [Example 43, 3-(3-Cyclohexyl-4-methoxybenzylidene)-5-fluoro-1,3-dihydroindol-2-one]
> 100 | COc1ccc(/C=C2/C(=O)Nc3ccc(F)cc32)cc1C(C)C [Example 44, 5-Fluoro-3-(3-isopropyl-4-methoxybenzylidene)-1,3-dihydroindol-2-one]
